Results on 35 compounds are retold here after US8889667B2 (Agios Pharmaceuticals, Inc, priority 2010, dated 2014).

Structures are written as SMILES.

For this assay, the target named is PKM2 (Homo sapiens, UniProt P14618). Briefly: PKM2 Assay (activation, LDH-coupled, absorbance at 340 nm). Type of assay: biochemical. The procedure, abridged:
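Read-out was the 340 nm NADH absorbance change at 25 °C in an LDH-coupled system (PEP 0.15 mM, NADH 180 μM, ADP 0.7 mM to initiate) in 50 mM Tris pH 7.5, 100 mM KCl, 5 mM MgCl2. PKM2 at 50 ng/well was first preincubated with compound for 30 min at 4 °C. Activation given as AC50.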

PKM2, sequence (P14618 whole entry): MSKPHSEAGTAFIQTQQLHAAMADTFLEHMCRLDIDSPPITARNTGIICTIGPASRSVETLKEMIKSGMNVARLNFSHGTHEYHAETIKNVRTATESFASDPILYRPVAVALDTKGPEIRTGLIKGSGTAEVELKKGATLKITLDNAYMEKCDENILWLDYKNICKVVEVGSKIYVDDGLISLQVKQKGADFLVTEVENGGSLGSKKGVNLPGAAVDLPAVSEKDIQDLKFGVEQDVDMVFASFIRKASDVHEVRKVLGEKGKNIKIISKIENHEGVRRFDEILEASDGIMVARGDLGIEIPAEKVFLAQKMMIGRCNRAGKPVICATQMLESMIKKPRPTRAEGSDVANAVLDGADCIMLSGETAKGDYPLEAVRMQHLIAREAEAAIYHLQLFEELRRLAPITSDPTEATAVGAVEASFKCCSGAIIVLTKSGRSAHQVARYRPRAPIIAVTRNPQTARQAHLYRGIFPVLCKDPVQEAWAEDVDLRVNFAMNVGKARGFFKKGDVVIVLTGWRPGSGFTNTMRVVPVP

In the case of `O=C(c1ccc(NS(=O)(=O)c2cccc3cccnc23)cc1F)N1CCN(CC2CCOC2)CC1` (centres unmarked) [Compound 425, N-(3-fluoro-4-(4-((tetrahydrofuran-3-yl)methyl)piperazine-1-carbonyl)phenyl)quinoline-8-sulfonamide], the AC50 (Table 5) is below 100 nM.

Where the note is “Table 5”, `O=C(c1ccc(NS(=O)(=O)c2cccc3cccnc23)c(OC(F)(F)F)c1)N1CCN(Cc2ncccc2C(F)(F)F)CC1` [Compound 309, N-(2-(trifluoromethoxy)-4-(4-((3-(trifluoromethyl)pyridin-2-yl)methyl)piperazine-1-carbonyl)phenyl)quinoline-8-sulfonamide] returned an AC50 of 1000 to 20000 nM.

On to `O=C(c1ccc(NS(=O)(=O)c2cccc3cccnc23)cc1)N1CCN(C(=O)c2c[nH]cn2)CC1` [Compound 349, N-(4-(4-(1H-imidazole-4-carbonyl)piperazine-1-carbonyl)phenyl)quinoline-8-sulfonamide], for which the concentration at half-maximal activity (AC50) (Table 5) fell in the range of 100 to 500 nM.

Consider `O=C(c1ccc(NS(=O)(=O)c2cccc3cccnc23)cc1)N1CCN(C(c2ccccc2)C(F)(F)F)CC1` (centres unmarked) [Compound 358, N-(4-(4-(2,2,2-trifluoro-1-phenylethyl)piperazine-1-carbonyl)phenyl)quinoline-8-sulfonamide], for which the AC50 (Table 5) was below 100 nM.

For the setting “Table 5”, `O=C(c1ccc(NS(=O)(=O)c2cccc3cccnc23)cc1)N1CCN(C(=O)c2cn[nH]c2)CC1` [Compound 372] gave an AC50 below 100 nM.

For `CC1CN(Cc2c(F)cc(F)cc2F)CC(C)N1C(=O)c1ccc(NS(=O)(=O)c2cccc3cccnc23)cc1` (centres unmarked) [Compound 202, N-(4-(2,6-dimethyl-4-(2,4,6-trifluorobenzyl)piperazine-1-carbonyl)phenyl)quinoline-8-sulfonamide], under “Table 4”, the AC50 was 100 to 500 nM.

Compound `CC(C)(C(=O)N1CCN(C(=O)c2ccc(NS(=O)(=O)c3cccc4cccnc34)c(OC(F)(F)F)c2)CC1)c1ccc(F)cc1` [Compound 362] returned an AC50 (Table 5) of 100 to 500 nM.

As to `C[C@H]1CN(CC2CCOC2)CCN1C(=O)c1ccc(NS(=O)(=O)c2cccc3cccnc23)cc1Cl` (stereo partly drawn) [Compound 187, N-(3-chloro-4-((2S)-2-methyl-4-((tetrahydrofuran-3-yl)methyl)piperazine-1-carbonyl)phenyl)quinoline-8-sulfonamide], the AC50 (Table 4) was in the range of 100 to 500 nM.

The compound `O=C(c1ccc(NS(=O)(=O)c2cccc3cccnc23)c(OC(F)(F)F)c1)N1CCN(Cc2ccncc2F)CC1` [Compound 304, N-(4-(4-((3-fluoropyridin-4-yl)methyl)piperazine-1-carbonyl)-2-(trifluoromethoxy)phenyl)quinoline-8-sulfonamide] had an AC50 (Table 5) of 100 to 500 nM.

Take `CC1CN(Cc2ccc(Cl)c(F)c2)CC(C)N1C(=O)c1ccc(NS(=O)(=O)c2cccc3cccnc23)cc1` (centres unmarked) [Compound 197, N-(4-(4-(4-chloro-3-fluorobenzyl)-2,6-dimethylpiperazine-1-carbonyl)phenyl)quinoline-8-sulfonamide]: the AC50 (Table 4) was in the range of 100 to 500 nM.

Turning to `O=C(c1ccc(NS(=O)(=O)c2cccc3cccnc23)c(OC(F)(F)F)c1)N1CCN(Cc2cccc(Cl)c2)CC1` [Compound 379, N-(4-(4-(3-chlorobenzyl)piperazine-1-carbonyl)-2-(trifluoromethoxy)phenyl)quinoline-8-sulfonamide], for the setting “Table 5”, the AC50 was in the range of 100 to 500 nM.

Regarding `O=C(c1ccc(NS(=O)(=O)c2cccc3cccnc23)c(OC(F)(F)F)c1)N1CCN(Cc2cccc(F)c2F)CC1` [Compound 375, N-(4-(4-(2,3-difluorobenzyl)piperazine-1-carbonyl)-2-(trifluoromethoxy)phenyl)quinoline-8-sulfonamide], the AC50 (Table 5) lay in the range of 100 to 500 nM.

Regarding `C[C@@H]1CN(Cc2c(F)ccc(F)c2F)CCN1C(=O)c1ccc(NS(=O)(=O)c2cccc3cccnc23)cc1` [Compound 132, (R)—N-(4-(2-methyl-4-(2,3,6-trifluorobenzyl)piperazine-1-carbonyl)phenyl)quinoline-8-sulfonamide], the AC50 (Table 4) was below 100 nM.

`CC(C)[C@H]1CN(Cc2ccc(F)cc2)CCN1C(=O)c1ccc(NS(=O)(=O)c2cccc3cccnc23)cc1` [Compound 175] registered an AC50 (Table 4) of 1000 to 20000 nM.

As to `C[C@H]1CN(CC2CCCC2)CCN1C(=O)c1ccc(NS(=O)(=O)c2cccc3cccnc23)cc1` [Compound 140, (S)—N-(4-(4-(cyclopentylmethyl)-2-methylpiperazine-1-carbonyl)phenyl)quinoline-8-sulfonamide], the AC50 (Table 4) was below 100 nM.

Consider `O=C(c1ccc(NS(=O)(=O)c2cccc3cccnc23)cc1)N1CCN(C(=O)c2cocn2)CC1` [Compound 347, N-(4-(4-(oxazole-4-carbonyl)piperazine-1-carbonyl)phenyl)quinoline-8-sulfonamide], for which, for the setting “Table 5”, the AC50 was in the range of 100 to 500 nM.

Where the note is “Table 5”, `O=C(c1ccc(NS(=O)(=O)c2cccc3cccnc23)nc1)N1CCN(Cc2cc(F)cc(F)c2)CC1` [Compound 413, N-(5-(4-(3,5-difluorobenzyl)piperazine-1-carbonyl)pyridin-2-yl)quinoline-8-sulfonamide] gave an AC50 of 100 to 500 nM.

Compound `C[C@H]1CN(Cc2ccccc2F)CCN1C(=O)c1ccc(NS(=O)(=O)c2cccc3cccnc23)cc1` [Compound 143, (S)—N-(4-(4-(2-fluorobenzyl)-2-methylpiperazine-1-carbonyl)phenyl)quinoline-8-sulfonamide] came in with an AC50 (Table 4) below 100 nM.

Where the note is “Table 5”, `Cc1cnc(C(=O)N2CCN(C(=O)c3ccc(NS(=O)(=O)c4cccc5cccnc45)cc3)CC2)cn1` [Compound 346, N-(4-(4-(5-methylpyrazine-2-carbonyl)piperazine-1-carbonyl)phenyl)quinoline-8-sulfonamide] yielded an AC50 of 500 to 1000 nM.

Under “Table 4”, `CC(C)[C@H]1CN(C(C)c2ccc(F)cc2)CCN1C(=O)c1ccc(NS(=O)(=O)c2cccc3cccnc23)cc1` (some centres unmarked) [Compound 177] showed an AC50 of 1000 to 20000 nM.

`C[C@@H]1CN(C[C@H]2CCCO2)CCN1C(=O)c1ccc(NS(=O)(=O)c2cccc3cccnc23)cc1` [Compound 212, N-(4-((R)-2-methyl-4-(((R)-tetrahydrofuran-2-yl)methyl)piperazine-1-carbonyl)phenyl)quinoline-8-sulfonamide] yielded an AC50 (Table 4) below 100 nM.

Regarding `C[C@H]1CN(C(=O)OCC2CC2)CCN1C(=O)c1ccc(NS(=O)(=O)c2cccc3cccnc23)cc1` [Compound 111, (S)-Cyclopropylmethyl3-methyl-4-(4-(quinoline-8-sulfonamido)benzoyl)piperazine-1-carboxylate], for the setting “Table 4”, the AC50 was below 100 nM.

With `CC(c1cc(F)cc(F)c1F)N1CCN(C(=O)c2ccc(NS(=O)(=O)c3cccc4cccnc34)cc2)CC1` (centres unmarked) [Compound 396, N-(4-(4-(1-(2,3,5-trifluorophenyl)ethyl)piperazine-1-carbonyl)phenyl)quinoline-8-sulfonamide], the AC50 (Table 5) was below 100 nM.

On to `O=C(c1ccc(NS(=O)(=O)c2cccc3cccnc23)cc1F)N1CCN(CC2CCOCC2)CC1` [Compound 436, N-(3-fluoro-4-(4-((tetrahydro-2H-pyran-4-yl)methyl)piperazine-1-carbonyl)phenyl)quinoline-8-sulfonamide], for which the AC50 (Table 5) is below 100 nM.

Compound `O=C(c1ccc(NS(=O)(=O)c2cccc3cccnc23)cc1)N1CCN(C2(c3ccccc3)CCCC2)CC1` [Compound 406, N-(4-(4-(1-phenylcyclopentyl)piperazine-1-carbonyl)phenyl)quinoline-8-sulfonamide] showed an AC50 (Table 5) below 100 nM.

Consider `CC1CN(Cc2cc(F)c(F)c(F)c2)CC(C)N1C(=O)c1ccc(NS(=O)(=O)c2cccc3cccnc23)cc1` (centres unmarked) [Compound 201, N-(4-(2,6-dimethyl-4-(3,4,5-trifluorobenzyl)piperazine-1-carbonyl)phenyl)quinoline-8-sulfonamide], for which the AC50 (Table 4) was 100 to 500 nM.

For `CC(c1ccc(F)cc1)N1CCN(C(=O)c2ccc(NS(=O)(=O)c3cccc4cccnc34)cc2)[C@@H](C)C1` (some centres unmarked) [Compound 171], under “Table 4”, the AC50 is 100 to 500 nM.

On to `O=C(c1ccc(NS(=O)(=O)c2cccc3cccnc23)cc1F)N1CCN(Cc2cc(F)c(F)c(F)c2)CC1` [Compound 423, N-(3-fluoro-4-(4-(3,4,5-trifluorobenzyl)piperazine-1-carbonyl)phenyl)quinoline-8-sulfonamide], for which, under “Table 5”, the AC50 was below 100 nM.

`CC(c1cc(F)cc(F)c1)N1CCN(C(=O)c2ccc(NS(=O)(=O)c3cccc4cccnc34)cc2)[C@H](C)C1` (stereo partly drawn) [Compound 135, N-(4-((2R)-4-(1-(3,5-difluorophenyl)ethyl)-2-methylpiperazine-1-carbonyl)phenyl)quinoline-8-sulfonamide]: for the setting “Table 4”, the AC50 is below 100 nM.

Turning to `O=C(c1ccc(NS(=O)(=O)c2cccc3cccnc23)c(OC(F)(F)F)c1)N1CCN(Cc2ccc(Cl)cc2)CC1` [Compound 338, N-(4-(4-(4-chlorobenzyl)piperazine-1-carbonyl)-2-(trifluoromethoxy)phenyl)quinoline-8-sulfonamide], the AC50 (Table 5) is 100 to 500 nM.

Under “Table 5”, `O=C(c1ccc(NS(=O)(=O)c2cccc3cccnc23)cc1)N1CCN(Cc2cn[nH]c2)CC1` [Compound 385, N-(4-(4-((1H-pyrazol-4-yl)methyl)piperazine-1-carbonyl)phenyl)quinoline-8-sulfonamide] came in with an AC50 below 100 nM.

As to `CC(c1ccc(F)cc1F)N1CCN(C(=O)c2ccc(NS(=O)(=O)c3cccc4cccnc34)cc2)[C@@H](C)C1` (some centres unmarked) [Compound 169], under “Table 4”, the AC50 was 100 to 500 nM.

For `O=C(Oc1ccccn1)N1CCN(C(=O)c2ccc(NS(=O)(=O)c3cccc4cccnc34)c(OC(F)(F)F)c2)CC1` [Compound 344, Pyridin-2-yl4-(4-(quinoline-8-sulfonamido)-3-(trifluoromethoxy)benzoyl)piperazine-1-carboxylate], the concentration at half-maximal activity (AC50) (Table 5) lay in the range of 500 to 1000 nM.

Where the note is “Table 4”, `O=C(c1ccc(NS(=O)(=O)c2cccc3cccnc23)cc1)N1CC2CCC(C1)N2CC1CC1` [Compound 221, N-(4-(8-(cyclopropylmethyl)-3,8-diazabicyclo[3.2.1]octane-3-carbonyl)phenyl)quinoline-8-sulfonamide] yielded an AC50 below 100 nM.

In turn, `O=C(c1ccc(NS(=O)(=O)c2cccc3cccnc23)cc1Cl)N1CCN(CC2CCCC2)CC1` [Compound 428, N-(3-chloro-4-(4-(cyclopentylmethyl)piperazine-1-carbonyl)phenyl)quinoline-8-sulfonamide] gave an AC50 (Table 5) of 100 to 500 nM.
